The source of these data is PubChem BioAssay (NCI).

Some test systems named below: ACHN renal; CCRF-CEM leukemia; HL-60(TB) leukemia; HOP-92 NSCLC; HT29 colon; IGROV1 ovarian; NCI-H23 lung; NCI-H522 lung; OVCAR-5 ovarian; RXF 393 renal; SF-295 CNS; SF-539 CNS; SK-MEL-28 melanoma; SN12C renal; T-47D breast; U251 CNS; UACC-257 melanoma; UO-31 renal; NCI-H460 lung.
Assay in all cases: inhibition of tumour cell growth, NCI panel, 48 h

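Method: 48-hour compound exposure of cells in 96-well plates, five concentrations, linear interpolation of endpoints. TGI is the concentration that stops growth completely.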 A value given as a limit tells only on which side of the number the result lay.

Take `O=C1CCC(=O)N1CNc1ccc2c(c1)Sc1ccccc1O2`: the TGI with ACHN renal was greater than 100 µM; in the test with CCRF-CEM leukemia, greater than 100 µM; in the test with HL-60(TB) leukemia, 54.8 µM; in the test with HOP-92 NSCLC it was 56.7 µM; in the test with HT29 colon, 54.7 µM; with IGROV1 ovarian, greater than 100 µM. In addition, the TGI was greater than 100 µM with NCI-H23 lung; 53.6 µM with NCI-H522 lung; greater than 100 µM in the test with OVCAR-5 ovarian; 79.9 µM with RXF 393 renal; greater than 100 µM in the test with SF-295 CNS; 34.7 µM with SF-539 CNS. Also, the TGI was greater than 100 µM in the test on SK-MEL-28 melanoma; 76.1 µM in the test with SN12C renal; greater than 100 µM in the test on T-47D breast; greater than 100 µM in the test on U251 CNS; greater than 100 µM in the test with UACC-257 melanoma; 91.5 µM in the test with UO-31 renal.
For the molecule `O=C(Sc1c(-c2ccccc2)c(=O)n(-c2ccccc2)c(=S)n1-c1ccccc1)c1ccc(Cl)cc1`, the TGI in the test with ACHN renal, with CCRF-CEM leukemia, with HL-60(TB) leukemia, in the test with HOP-92 NSCLC, in the test on HT29 colon and in the test on IGROV1 ovarian was greater than 100 µM in each case. The TGI in the test on NCI-H23 lung, with NCI-H460 lung, in the test on NCI-H522 lung, in the test with OVCAR-5 ovarian, in the test on RXF 393 renal and in the test on SF-295 CNS was greater than 100 µM each time. The TGI in the test on SF-539 CNS, in the test on SK-MEL-28 melanoma, in the test with SN12C renal, with T-47D breast, in the test on U251 CNS and with UACC-257 melanoma was greater than 100 µM throughout.
For the molecule `CC(=O)OCC1OC(n2c(C)c(N=Nc3ccc(C)cc3)c(C)c(C#N)c2=S)C(OC(C)=O)C(OC(C)=O)C1OC(C)=O` (stereo not drawn), the TGI is greater than 100 µM in the test on ACHN renal; greater than 100 µM in the test on CCRF-CEM leukemia; greater than 100 µM with HL-60(TB) leukemia; 34.2 µM in the test on HOP-92 NSCLC; greater than 100 µM in the test with HT29 colon; greater than 100 µM in the test on IGROV1 ovarian. The TGI with NCI-H23 lung, in the test on NCI-H460 lung, with OVCAR-5 ovarian, in the test on RXF 393 renal, in the test with SF-295 CNS and in the test on SF-539 CNS was greater than 100 µM throughout. In addition, the TGI with SK-MEL-28 melanoma, in the test with SN12C renal, with T-47D breast, in the test on U251 CNS, with UACC-257 melanoma and in the test with UO-31 renal was greater than 100 µM throughout.
With `Cc1cc(Cl)nc(NC(=O)CSc2ccc(Cl)cc2)n1`, the TGI in the test on ACHN renal, with CCRF-CEM leukemia, in the test with HL-60(TB) leukemia, in the test on HOP-92 NSCLC, in the test with HT29 colon and with IGROV1 ovarian was greater than 100 µM each time. The TGI in the test with NCI-H23 lung, in the test on NCI-H460 lung, in the test on NCI-H522 lung, in the test on OVCAR-5 ovarian, with RXF 393 renal and with SF-295 CNS was greater than 100 µM in each case. Moreover, the TGI in the test on SK-MEL-28 melanoma, with SN12C renal, in the test on T-47D breast, in the test on U251 CNS, with UACC-257 melanoma and in the test with UO-31 renal was greater than 100 µM each time.
As to `O=C1O/C(=C\c2ccc(O)c(Br)c2)C(c2ccc(O)cc2)=C1Cl`, the TGI in the test with ACHN renal is greater than 100 µM; in the test on CCRF-CEM leukemia, 41.1 µM; with HL-60(TB) leukemia it was greater than 100 µM; in the test with HOP-92 NSCLC it was greater than 100 µM; in the test on HT29 colon it was greater than 100 µM; in the test with IGROV1 ovarian, greater than 100 µM. Besides, the TGI was 61.6 µM in the test on NCI-H23 lung; 76.6 µM in the test with NCI-H460 lung; 68.6 µM in the test with NCI-H522 lung; greater than 100 µM in the test with OVCAR-5 ovarian; 84.4 µM in the test with RXF 393 renal; greater than 100 µM in the test on SF-295 CNS. In addition, the TGI with SF-539 CNS, with SK-MEL-28 melanoma, in the test on T-47D breast, in the test on U251 CNS, in the test with UACC-257 melanoma and in the test on UO-31 renal was greater than 100 µM each time.
Regarding `CCOC(=O)c1ccc2c(c1)nc1n2C(c2c(F)cccc2F)SC1` (stereo not drawn), the TGI with ACHN renal was greater than 100 µM; in the test with CCRF-CEM leukemia, greater than 100 µM; in the test on HL-60(TB) leukemia, greater than 100 µM; in the test with HOP-92 NSCLC it was greater than 100 µM; in the test with HT29 colon it was 56.4 µM; in the test with IGROV1 ovarian it was 42 µM. Moreover, the TGI was 77.3 µM in the test with NCI-H23 lung; greater than 100 µM with NCI-H460 lung; greater than 100 µM in the test with OVCAR-5 ovarian; greater than 100 µM in the test with RXF 393 renal; 73.7 µM in the test with SF-295 CNS; 53.1 µM in the test on SF-539 CNS. Moreover, the TGI in the test with SK-MEL-28 melanoma is greater than 100 µM; in the test on SN12C renal it was greater than 100 µM; with T-47D breast, 49.9 µM; with U251 CNS it was greater than 100 µM; in the test with UACC-257 melanoma, greater than 100 µM; in the test with UO-31 renal, greater than 100 µM.
On to `N#Cc1c(C#N)c(-c2cccc([N+](=O)[O-])c2)n(-c2ccccc2)c1N`, for which the TGI in the test on ACHN renal, with CCRF-CEM leukemia, in the test on HL-60(TB) leukemia, in the test on HOP-92 NSCLC, with HT29 colon and in the test with IGROV1 ovarian was greater than 100 µM each time. Moreover, the TGI with NCI-H23 lung, in the test on NCI-H522 lung, in the test on OVCAR-5 ovarian, in the test with RXF 393 renal, in the test on SF-295 CNS and in the test on SF-539 CNS was greater than 100 µM each time. For the same molecule, the TGI in the test with SN12C renal, in the test on T-47D breast, in the test with U251 CNS, in the test with UACC-257 melanoma and with UO-31 renal was greater than 100 µM in each case.
As to `CCOC(=O)C1C(=O)CC(C)(O)C(C(=O)OCC)C1c1ccc(N(C)C)cc1` (stereo not drawn), the TGI with ACHN renal, in the test on CCRF-CEM leukemia, with HL-60(TB) leukemia, in the test with HOP-92 NSCLC, in the test on HT29 colon and in the test on IGROV1 ovarian was greater than 100 µM throughout. Further, the TGI with NCI-H23 lung, in the test with NCI-H460 lung, in the test on NCI-H522 lung, in the test on OVCAR-5 ovarian, in the test on RXF 393 renal and in the test on SF-295 CNS was greater than 100 µM throughout. Besides, the TGI with SK-MEL-28 melanoma, in the test on SN12C renal, in the test on T-47D breast, in the test on U251 CNS, with UACC-257 melanoma and in the test on UO-31 renal was greater than 100 µM each time.
For the molecule `CC(=O)c1ccc(-c2oc(-c3ccccc3)cc2-c2ccc3c(c2)OCO3)s1`, the TGI with ACHN renal is greater than 100 µM; in the test on CCRF-CEM leukemia, 2.99 µM; in the test with HL-60(TB) leukemia it was 2.36 µM; in the test with HOP-92 NSCLC it was greater than 100 µM; with HT29 colon, greater than 100 µM; in the test with IGROV1 ovarian it was greater than 100 µM. Also, the TGI with NCI-H23 lung is 89.9 µM; in the test with NCI-H460 lung, greater than 100 µM; in the test with OVCAR-5 ovarian it was greater than 100 µM; in the test with RXF 393 renal, greater than 100 µM; with SF-295 CNS, greater than 100 µM; in the test on SF-539 CNS, greater than 100 µM. Also, the TGI in the test on SN12C renal, in the test on T-47D breast, in the test with U251 CNS, in the test on UACC-257 melanoma and in the test on UO-31 renal was greater than 100 µM each time.
Take `COC(=O)c1cc(C#N)[nH]c1-c1ccsc1`: the TGI in the test on ACHN renal was greater than 100 µM; in the test with CCRF-CEM leukemia it was greater than 100 µM; in the test with HL-60(TB) leukemia, 48.7 µM; in the test on HOP-92 NSCLC it was greater than 100 µM; in the test with HT29 colon it was greater than 100 µM; with IGROV1 ovarian, greater than 100 µM. Further, the TGI in the test on NCI-H23 lung, with NCI-H522 lung, in the test with OVCAR-5 ovarian, in the test on RXF 393 renal, in the test on SF-295 CNS and with SK-MEL-28 melanoma was greater than 100 µM throughout. In addition, the TGI with SN12C renal, with T-47D breast, in the test with U251 CNS, in the test on UACC-257 melanoma and with UO-31 renal was greater than 100 µM each time.
As for `COc1ccccc1C1C2=C(COC2=O)OC(C)(C)Oc2cc3c(cc21)OCO3` (stereo not drawn), the TGI in the test with ACHN renal is greater than 94.1 µM; in the test on CCRF-CEM leukemia, greater than 100 µM; in the test on HL-60(TB) leukemia, 7.8 µM; with HOP-92 NSCLC, greater than 61.5 µM; with HT29 colon, 17.3 µM; in the test with IGROV1 ovarian, greater than 87.1 µM. The TGI was greater than 59.2 µM in the test on NCI-H23 lung; greater than 40.3 µM in the test on NCI-H460 lung; greater than 32 µM in the test with NCI-H522 lung; greater than 100 µM in the test on OVCAR-5 ovarian; 4.87 µM with RXF 393 renal; greater than 45.6 µM in the test on SF-295 CNS. The TGI was 72.1 µM with SK-MEL-28 melanoma; greater than 91.9 µM in the test with SN12C renal; greater than 100 µM with T-47D breast; greater than 89.3 µM in the test on U251 CNS; greater than 51.4 µM in the test on UACC-257 melanoma; greater than 100 µM with UO-31 renal.
Consider `CCOC(=O)c1sc2nc(SC)nc(Nc3ccc4c(c3)OCCCO4)c2c1N`, for which the TGI with ACHN renal, in the test with CCRF-CEM leukemia, with HL-60(TB) leukemia, with HOP-92 NSCLC, in the test with HT29 colon and with IGROV1 ovarian was greater than 100 µM throughout. Besides, the TGI in the test on NCI-H23 lung is greater than 100 µM; in the test on NCI-H522 lung, 37.2 µM; in the test on OVCAR-5 ovarian it was greater than 100 µM; in the test on RXF 393 renal, 41.7 µM; in the test with SF-295 CNS, 53.9 µM; with SF-539 CNS, greater than 100 µM. The TGI in the test on SK-MEL-28 melanoma, with SN12C renal, in the test with T-47D breast, in the test on U251 CNS, in the test with UACC-257 melanoma and in the test with UO-31 renal was greater than 100 µM each time.
